# “And” between values parts separate entries of the source, which are not always exact repeats. Identical values can stand only once.
# Target: hSK2 (Homo sapiens, UniProt Q9H2S1)
# Test: Assay for compound activity towards hSK channels (86Rb+ efflux)
# Type: cell-based
# Conditions: 86Rb+ efflux stimulated with calcium ionophore; drug 0.01 to 30 μM in EBSS; read-out: hSK2 Inhibitory Activity
# Procedure: 18.1 Assay for Compound Activity Towards hSK Channels Cells expressing small conductance, calcium activated potassium channels, such as SK-like channels were loaded with ^86Rb^+ by culture in media containing ^86RbCl. Following loading, the culture media was removed and the cells were washed in EBSS to remove residual traces of ^86Rb^+. Cells were preincubated with the drug (0.01 to 30 μM in EBSS) and then ^86Rb^+ efflux was stimulated by exposing cells to EBSS solution supplemented with a calcium ionophore, such as ionomycin, in the continued presence of the drug. After a suitable efflux period, the EBSS/ionophore solution was removed from the cells and the ^86Rb^+ content was determined by Cherenkov counting (Wallac Trilux). Cells were then lysed with a SDS solution and the ^86Rb^+ content of the lysate was determined. Percent ^86Rb^+ efflux was calculated according to the following equation: (^86Rb^+ content in EBSS/(^86Rb^+ content in EBSS+^86Rb^+ content of the lysate))×100
row,IC50,SMILES
1,< 0.05 µM,"c1ccc(-c2cncc(Nc3ccc(N4CCCCC4)cn3)n2)nc1 [(6-Pyridin-2-yl-pyrazin-2-yl)-(3,4,5,6-tetrahydro-2H-[1,3′]bipyridinyl-6′-yl)-amine]"
2,3 to 30 µM,[O-][n+]1ccccc1Nc1cncc(-c2ccccn2)n1 [(1-Oxy-pyridin-2-yl)-(6-pyridin-2-yl-pyrazin-2-yl)-amine]
3,3 to 30 µM,CN1CCN(c2ccc(Nc3cncc(-c4ccccn4)n3)nc2)C(=O)C1 [4-Methyl-1-[6-(6-pyridin-2-yl-pyrazin-2-ylamino)-pyridin-3-yl]-piperazin-2-one]
4,3 to 30 µM,"CC(C)(C)c1nnc(Nc2cncc(-c3ccccn3)n2)s1 [(5-tert-Butyl-[1,3,4]thiadiazol-2-yl)-(6-pyridin-2-yl-pyrazin-2-yl)-amine]"
5,3 to 30 µM,N#Cc1cncnc1Nc1cncc(-c2ccccn2)n1 [4-(6-Pyridin-2-yl-pyrazin-2-ylamino)-pyrimidine-5-carbonitrile]
6,0.05 to 1 µM,Cc1ccnc(-c2cncc(Nc3ccc(F)cn3)n2)c1 [(5-Fluoro-pyridin-2-yl)-[6-(4-methyl-pyridin-2-yl)-pyrazin-2-yl]-amine]
7,3 to 30 µM,c1ccc(-c2ccc(Nc3cncc(-c4cc(N5CCCC5)ccn4)n3)nc2)cc1 [(5-Phenyl-pyridin-2-yl)-[6-(4-pyrrolidin-1-yl-pyridin-2-yl)-pyrazin-2-yl]-amine]
8,0.05 to 1 µM and 1 to 3 µM,Fc1ccc(Nc2cncc(-c3ccccn3)n2)nc1 [(5-Fluoro-pyridin-2-yl)-(6-pyridin-2-yl-pyrazin-2-yl)-amine]
9,3 to 30 µM,c1ccc(-c2cncc(Nc3nccs3)n2)nc1 [(6-Pyridin-2-yl-pyrazin-2-yl)-thiazol-2-yl-amine]
10,0.05 to 1 µM,c1ccc(Nc2cncc(-c3cc(N4CCCC4)ccn3)n2)nc1 [Pyridin-2-yl-[6-(4-pyrrolidin-1-yl-pyridin-2-yl)-pyrazin-2-yl]-amine]
11,3 to 30 µM,NC(=O)c1cnn(-c2ccccc2)c1Nc1cncc(-c2ccccn2)n1 [1-Phenyl-5-(6-pyridin-2-yl-pyrazin-2-ylamino)-1H-pyrazole-4-carboxylic acid amide]
12,3 to 30 µM,c1ccc(-c2cncc(Nc3nnn[nH]3)n2)nc1 [(6-Pyridin-2-yl-pyrazin-2-yl)-(1H-tetrazol-5-yl)-amine]
13,3 to 30 µM,Cc1cnn(-c2cncc(Nc3ccc(-c4ccccc4)cn3)n2)c1 [[6-(4-Methyl-pyrazol-1-yl)-pyrazin-2-yl]-(5-phenyl-pyridin-2-yl)-amine]
14,3 to 30 µM,CC(=O)c1sc(Nc2cncc(-c3ccccn3)n2)nc1C [1-[4-Methyl-2-(6-pyridin-2-yl-pyrazin-2-ylamino)-thiazol-5-yl]ethanone]
15,< 0.05 µM,c1ccc(Nc2cncc(-c3ccccn3)n2)nc1 [Pyridin-2-yl-(6-pyridin-2-yl-pyrazin-2-yl)-amine]
16,0.05 to 1 µM,"CC1CCN(c2ccc(Nc3cncc(-c4ccccn4)n3)nc2)CC1 [(4-Methyl-3,4,5,6-tetrahydro-2H-[1,3′]bipyridinyl-6′-yl)-(6-pyridin-2-yl-pyrazin-2-yl)-amine]"
17,3 to 30 µM,NC(=O)c1ccc(Nc2cncc(-c3ccccn3)n2)nc1 [6-(6-Pyridin-2-yl-pyrazin-2-ylamino)-nicotinamide]
18,< 0.05 µM,c1ccc(-c2cncc(Nc3ccc(N4CCOCC4)cn3)n2)nc1 [(5-Morpholin-4-yl-pyridin-2-yl)-(6-pyridin-2-yl-pyrazin-2-yl)-amine]
19,1 to 3 µM,Brc1ncc(-c2ccccn2)nc1Nc1ccccn1 [(3-Bromo-6-pyridin-2-yl-pyrazin-2-yl)-pyridin-2-yl-amine]
20,0.05 to 1 µM,"Nc1ccc(Nc2cncc(-c3ccccn3)n2)nc1 [N^2-(6-Pyridin-2-yl-pyrazin-2-yl)-pyridine-2,5-diamine]"
21,3 to 30 µM,Cc1ccnc(Nc2cncc(-c3ccccn3)n2)c1[N+](=O)[O-] [(4-Methyl-3-nitro-pyridin-2-yl)-(6-pyridin-2-yl-pyrazin-2-yl)-amine]
22,3 to 30 µM,CCOC(=O)c1sc(Nc2cncc(-c3ccccn3)n2)nc1-c1ccccc1 [4-Phenyl-2-(6-pyridin-2-yl-pyrazin-2-ylamino)-thiazole-5-carboxylic acid ethyl ester]
23,0.05 to 1 µM,CN(C)c1ccc(-c2ccc(Nc3cncc(-c4ccccn4)n3)nc2)cc1 [[5-(4-Dimethylamino-phenyl)-pyridin-2-yl]-(6-pyridin-2-yl-pyrazin-2-yl)-amine]
24,3 to 30 µM,"c1ccc(-c2cncc(Nc3nc[nH]n3)n2)nc1 [(6-Pyridin-2-yl-pyrazin-2-yl)-(1H-[1,2,4]triazol-3-yl)-amine]"
25,0.05 to 1 µM,Cc1ccnc(-c2cncc(Nc3ccccn3)n2)c1 [[6-(4-Methyl-pyridin-2-yl)-pyrazin-2-yl]-pyridin-2-yl-amine]
26,3 to 30 µM,CCCCCOc1cccnc1Nc1cncc(-c2ccccn2)n1 [(3-Pentyloxy-pyridin-2-yl)-(6-pyridin-2-yl-pyrazin-2-yl)-amine]

row,IC50,SMILES
1,3 to 30 µM,Brc1ccc(Nc2cnc(Br)c(-c3ccccn3)n2)nc1 [(5-Bromo-pyridin-2-yl)-(5-bromo-6-pyridin-2-yl-pyrazin-2-yl)-amine]
2,3 to 30 µM,"CCN(CC)C(=O)c1ccc(Nc2cncc(-c3ccccn3)n2)nc1 [N,N-Diethyl-6-(6-pyridin-2-yl-pyrazin-2-ylamino)-nicotinamide]"
3,< 0.05 µM,c1ccc(-c2cncc(Nc3ccc(N4CCCC4)cn3)n2)nc1 [(6-Pyridin-2-yl-pyrazin-2-yl)-(5-pyrrolidin-1-yl-pyridin-2-yl)-amine]
4,0.05 to 1 µM,c1ccc(-c2ccc(Nc3cncc(-c4ccccn4)n3)nc2)cc1 [(5-Phenyl-pyridin-2-yl)-(6-pyridin-2-yl-pyrazin-2-yl)-amine]
5,0.05 to 1 µM,c1ccc(-c2cncc(Nc3ccc(-c4ccsc4)cn3)n2)nc1 [(6-Pyridin-2-yl-pyrazin-2-yl)-(5-thiophen-3-yl-pyridin-2-yl)-amine]
6,3 to 30 µM,c1ccc(COc2cccnc2Nc2cncc(-c3ccccn3)n2)cc1 [(3-Benzyloxy-pyridin-2-yl)-(6-pyridin-2-yl-pyrazin-2-yl)-amine]
7,3 to 30 µM,CCOC(=O)c1cnn(-c2ccccc2)c1Nc1cncc(-c2ccccn2)n1 [1-Phenyl-5-(6-pyridin-2-yl-pyrazin-2-ylamino)-1H-pyrazole-4-carboxylic acid ethyl ester]
8,0.05 to 1 µM,Cc1cnn(-c2cncc(Nc3ccc(N4CCCC4=O)cn3)n2)c1 [1-{6-[6-(4-Methyl-pyrazol-1-yl)-pyrazin-2-ylamino]-pyridin-3-yl}-pyrrolidin-2-one]
9,3 to 30 µM,FC(F)(F)c1cnc(Nc2cncc(-c3ccccn3)n2)c(Cl)c1 [(3-Chloro-5-trifluoromethyl-pyridin-2-yl)-(6-pyridin-2-yl-pyrazin-2-yl)-amine]
10,3 to 30 µM,O=[N+]([O-])c1ccc(Nc2cncc(-c3ccccn3)n2)nc1 [(5-Nitro-pyridin-2-yl)-(6-pyridin-2-yl-pyrazin-2-yl)-amine]
11,0.05 to 1 µM,c1ccc(-c2cncc(Nc3ccc(-c4cccs4)cn3)n2)nc1 [(6-Pyridin-2-yl-pyrazin-2-yl)-(5-thiophen-2-yl-pyridin-2-yl)-amine]
12,3 to 30 µM,COc1cccc(-c2cncc(Nc3ccc(Cl)cn3)n2)n1 [(5-Chloro-pyridin-2-yl)-[6-(6-methoxy-pyridin-2-yl)-pyrazin-2-yl]-amine]
13,3 to 30 µM,"c1ccc(-c2cncc(Nc3ncncn3)n2)nc1 [(6-Pyridin-2-yl-pyrazin-2-yl)-[1,3,5]triazin-2-yl-amine]"
14,1 to 3 µM,CN1CCN(c2ccc(Nc3cncc(-c4ccccn4)n3)nc2)CC1 [[5-(4-Methyl-piperazin-1-yl)-pyridin-2-yl]-(6-pyridin-2-yl-pyrazin-2-yl)-amine]
15,3 to 30 µM,NC(=O)c1ncc(-c2ccccn2)nc1Nc1ccccn1 [5-Pyridin-2-yl-3-(pyridin-2-ylamino)-pyrazine-2-carboxylic acid amide]
16,3 to 30 µM,O=C(c1ccccc1)c1nccnc1Nc1cncc(-c2ccccn2)n1 [Phenyl-[3-(6-pyridin-2-yl-pyrazin-2-ylamino)-pyrazin-2-yl]-methanone]
17,3 to 30 µM,Fc1ccc(Nc2cncc(-c3cc(N4CCCC4)ccn3)n2)nc1 [(5-Fluoro-pyridin-2-yl)-[6-(4-pyrrolidin-1-yl-pyridin-2-yl)-pyrazin-2-yl]-amine]
18,0.05 to 1 µM,Cc1cc(Nc2cncc(-c3ccccn3)n2)[nH]n1 [(5-Methyl-2H-pyrazol-3-yl)-(6-pyridin-2-yl-pyrazin-2-yl)-amine]
19,0.05 to 1 µM,c1ccc(-c2cncc(Nc3cnccn3)n2)nc1 [Pyrazin-2-yl-(6-pyridin-2-yl-pyrazin-2-yl)-amine]
20,3 to 30 µM,Oc1cccnc1Nc1cncc(-c2ccccn2)n1 [2-(6-Pyridin-2-yl-pyrazin-2-ylamino)-pyridin-3-ol]
21,0.05 to 1 µM,Brc1ccc(Nc2cncc(-c3ccccn3)n2)nc1 [(5-Bromo-pyridin-2-yl)-(6-pyridin-2-yl-pyrazin-2-yl)-amine]
22,3 to 30 µM,Cc1cnn(-c2cncc(Nc3ccc(I)cn3)n2)c1 [(5-Iodo-pyridin-2-yl)-[6-(4-methyl-pyrazol-1-yl)-pyrazin-2-yl]-amine]
23,3 to 30 µM,CCOC(=O)c1c[nH]nc1Nc1cncc(-c2ccccn2)n1 [3-(6-Pyridin-2-yl-pyrazin-2-ylamino)-1H-pyrazole-4-carboxylic acid ethyl ester]
24,3 to 30 µM,c1ccc(-c2csc(Nc3cncc(-c4ccccn4)n3)n2)cc1 [(4-Phenyl-thiazol-2-yl)-(6-pyridin-2-yl-pyrazin-2-yl)-amine]
25,0.05 to 1 µM,Clc1ccc(-c2ccc(Nc3cncc(-c4ccccn4)n3)nc2)s1 [[5-(5-Chloro-thiophen-2-yl)-pyridin-2-yl]-(6-pyridin-2-yl-pyrazin-2-yl)-amine]

# — patent US7642354B2, “Polycyclic pyrazines as potassium ion channel modulators” (Icagen, Inc., priority 2004, dated 2010)
